Entries after “also recorded” stand apart in the source; their conditions may differ. Marks after values point to notes of the source that are not given here.
Legend:
[1] = biological target: T1, Sphingobacterium multivorum SPT (Sphingobacterium multivorum, UniProt A7BFV6); test: Steady-state kinetic analysis of SPT (LCB production from amino acid and PalCoA, quantified by TLC fluorescence); assay type: biochemical; settings: 1 mM PalCoA; for Kmapp / kcatapp: mean ± SD
T1 construct: harboring the plasmid that express the full length of S. multivorum SPT; made in house; host or cells: Escherichia coli BL21 (DE3) pLysS
T1 sequence (A7BFV6 whole entry): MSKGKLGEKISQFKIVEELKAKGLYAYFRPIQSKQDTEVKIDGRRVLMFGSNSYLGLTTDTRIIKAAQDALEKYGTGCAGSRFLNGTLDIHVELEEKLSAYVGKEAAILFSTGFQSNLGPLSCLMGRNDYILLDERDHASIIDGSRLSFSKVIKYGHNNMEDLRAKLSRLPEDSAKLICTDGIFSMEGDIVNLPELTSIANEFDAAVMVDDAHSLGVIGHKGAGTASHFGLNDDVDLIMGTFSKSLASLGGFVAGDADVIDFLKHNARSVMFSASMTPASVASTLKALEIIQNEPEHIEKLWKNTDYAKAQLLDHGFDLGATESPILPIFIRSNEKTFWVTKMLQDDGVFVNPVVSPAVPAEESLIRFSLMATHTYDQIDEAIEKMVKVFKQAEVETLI
Procedure: The assay was performed as follows; 200 mM of amino acid (glycine, L-Ala, L-Ser, L-Hse, or L-Thr) was incubated with 1 mM PalCoA and 100 μM SPT in 100 μl of 100 mM potassium phosphate, pH 7.5, for 60 min at 37 °C. The reactions were terminated by addition of the equal volume of 2 N ammonia. Lipids were extracted by successive addition and mixing of 750 μl of chloroform/methanol (1:2, v/v), 250 μl of chloroform, and 250 μl of 1% KCl. Phases were separated by centrifugation, and the organic phase was recovered. The aqueous phase was reextracted with 200 μl of chloroform, and, after centrifugation, the organic phase was combined with the organic phase from the first extraction. The organic phase was washed with water/chloroform/methanol (47:48:3, v/v), dried, and suspended in chloroform/methanol (2:1, v/v). The extracted lipids were resolved by normal-phase TLC on Silica Gel 60 high-performance TLC plates (Merck) with chloroform/methanol/2 N ammonia (40:10:1, v/v) or chloroform/methanol/triethanol amine (95:5:10, v/v) and visualized by spraying with ninhydrin reagent followed by gentle heating. For the quantitative analysis, the UV-fluorescence intensities of the reaction products on TLC plates were visualized by a Fusion chemiluminescence imaging system using a UV-light box and analyzed by a FUSION Capt software (VILBER; https://www.garvan.org.au/research/capabilities/molecular-genetics/ documents/fusion_manual_2016.pdf).
Steady-state kinetic parameters were determined by varying the concentrations of the amino acid substrate in the presence of 1 mM PalCoA in 100 μl of 100 mM potassium phosphate, pH 7.5, at 37 °C. The concentration of SPT and the incubation time were 1 μM and 10 min for L-Ser; 5 μM and 10 min for L-Hse; 20 μM and 30 min for L-Ala; and 100 μM and 120 min for Gly. The reaction termination, lipid extraction, TLC analysis, and quantification of the reaction products on TLC plates were described above. The apparent velocities (min^–1) versus amino acid concentrations (mM) plots were fitted to the Michaelis–Menten equation, v = Vmax[S]/(Km+[S]), by nonlinear regression using the Igor Pro 6.37 (https://www.wavemetrics.com/forum/news-and-announcements/igor-pro-637-released). software (Wave Matrix Inc.) to determine the apparent kinetic parameters, kcatapp and Kmapp , of SPT for each amino acid substrate.
The reactions were carried out in the presence of 1 mM PalCoA as described in Experimental procedures. Apparent rate constants, obtained by dividing the rate of the LCB production by the concentration of the enzyme, were plotted against concentrations of amino acid substrate, L-Ser (A), L-Hse (B), L-Ala (C), or glycine (D). The plots were fitted to the equation of the Michaelis–Menten mechanism, v = Vmax[S]/(Km+[S]), by nonlinear regression using the software Igor Pro (ver 6.37, WaveMetrics, Lake Oswego, OR), and the Kmappand kcatapp of SPT for each amino acid substrate were calculated. Solid line represents a theoretical curve based on the above equation. Each data point is a mean with the error bar showing standard deviation from at least three independent experiments.

[2] = biological target: T1, Sphingobacterium multivorum SPT; test: Spectroscopic titration of SPT with amino acids (dissociation constants, external aldimine formation); assay type: binding; settings: 10 μM SPT, pH 7.5, 25 °C
Procedure: Next, binding of the amino acids to the S. multivorum SPT was examined by spectroscopic titration.
Figure 3 Spectroscopic analysis of the reaction of the Sphingobacterium multivorum SPT with L-Ala or L-Thr.A, the UV/vis absorption spectra of SPT (10 μM) in the presence of 800 mM L-Ala were measured at time intervals of 10 min for 500 min. Each line numbered 1 to 12 corresponds to the spectrum at 0, 10, 20, 30, 40, 50, 60, 80, 90, 110, 150, and 500 min, respectively, after SPT was mixed with L-Ala. […] B, spectroscopic titration of SPT with L-Ala. Absorbance at 420 nm in the presence of 0, 50, 100, 200, 400, and 600 mM L-Ala at 0 min was measured, and apparent molar absorptivities at 420 nm were plotted against L-Ala concentrations. […] C, absorption spectra of SPT (10 μM) in the presence of 0, 1.3, 3.7, 7.4, 12.2, 18.1, 24.9, 32.7, 41.3, and 51.6 mM L-Thr (lines 1–10, respectively). […] SPT, serine palmitoyltransferase.
The titration assay was carried out by using 10 μM SPT in 100 mM potassium phosphate and 0.1 mM EDTA, pH 7.5, at 25 °C. The changes of the 422 nm absorption intensities of SPT upon addition of amino acids were plotted against the final concentrations of the amino acids, and the Kd values were calculated by fitting to a hyperbolic saturation curve using Igor Pro 6.37. software. UV/vis spectra of SPT were recorded with a Hitachi U-3310 spectrophotometer.

[3] = biological target: T1, Sphingobacterium multivorum SPT; test: TLC analysis of LCB formation from amino acids by SPT (ninhydrin); assay type: biochemical; settings: 200 mM amino acid, 1 mM PalCoA, 100 μM SPT, pH 7.5, 60 min, 37 °C
Excerpt: Reaction products were extracted with solvents and separated by TLC. […] Each LCB product was quantified by the fluorescence intensity based on the standard curve obtained by using the corresponding authentic compound.

[4] = biological target: T1, Sphingobacterium multivorum SPT; test: UV/vis time course of conversion of PLP and L-Ala to PMP and pyruvate by SPT (abortive transamination); assay type: biochemical
Procedure: Next, binding of the amino acids to the S. multivorum SPT was examined by spectroscopic titration. […] Therefore, the absorption at 420 nm just after SPT was mixed with L-Ala was measured and plotted against concentrations of L-Ala (Fig. 3B), and the Kd value for L-Ala was estimated as 65 ± 10 mM (Table 1). For the other amino acids, only spectral changes corresponding to the external aldimine formation between PLP and the amino acids were observed, and side reactions such as PMP formation were not detected.
Figure 3 Spectroscopic analysis of the reaction of the Sphingobacterium multivorum SPT with L-Ala or L-Thr.A, the UV/vis absorption spectra of SPT (10 μM) in the presence of 800 mM L-Ala were measured at time intervals of 10 min for 500 min. Each line numbered 1 to 12 corresponds to the spectrum at 0, 10, 20, 30, 40, 50, 60, 80, 90, 110, 150, and 500 min, respectively, after SPT was mixed with L-Ala. […] The lines represent theoretical fits to a single-exponential equation ( y=A×e^−k⋅t ), where k is 0.029 ± 0.00024 min^–1. B, spectroscopic titration of SPT with L-Ala. Absorbance at 420 nm in the presence of 0, 50, 100, 200, 400, and 600 mM L-Ala at 0 min was measured, and apparent molar absorptivities at 420 nm were plotted against L-Ala concentrations. […]

[5] = 100 mM potassium phosphate pH 7.5, 37 °C
[6] = 100 mM potassium phosphate, 0.1 mM EDTA, absorption at 422 nm, mean ± SD
[7] = reaction mixture supplemented with 0.1 mM PLP, pH 7.5, 37 °C

Row | SMILES | Kmapp, fold larger than that for L-Ser [1] [fold] | kcatapp, fold smaller than that for L-Ser [1] | Kmapp [1, 5] [mM] | kcatapp [1, 5] [min^–1] | kcatapp/Kmapp (apparent catalytic efficiency) ([1]; pH 7.5, 37 °C) [min^–1 mM^–1] | Kd [2, 6] [mM] | LCB formation (reaction product on TLC) [3] | Kmapp [1, 7] | kcatapp [1, 7] | Kd ([2]; absorption intensity at 424 nm immediately after SPT was mixed with L-Ala (text: 420 nm)) [mM] | half-life τ1/2 of conversion of PLP and L-Ala to PMP and pyruvate ([4]; SPT (10 μM) incubated with 800 mM L-Ala) [min] | rate constant k of single-exponential change in absorption at 420 nm and 328 nm ([4]; SPT (10 μM), 800 mM L-Ala) [min^–1]
1 | NCC(=O)O [Gly, glycine] | 21 | 36,000 fold | 77 ± 8.1 | 0.008 ± 0.002 | 0.0001 | 71 ± 5.5 | converted to corresponding LCBs |  |  |  |  | 
2 | NC(CO)(CO)CO [Tris, tris(hydroxymethyl)aminomethane] |  |  |  |  |  | 40 ± 5.6 |  |  |  |  |  | 
3 | C[C@H](N)C(=O)O [L-Ala, L-alanine] |  |  |  |  | 0.0037 |  | converted to corresponding LCBs | 110 ± 9.0 ^c mM | 0.42 ± 0.011 ^c min^–1 | 65 ± 10 | 24.0 ± 0.2 | 0.029 ± 0.00024
4 | C[C@@H](O)[C@H](N)C(=O)O [L-Thr, L-threonine] | 23 |  |  |  |  | 8.2 ± 1 | not detected; also recorded: nonproductive ligand |  |  |  |  | 
5 | N[C@@H](CO)C(=O)O [L-Ser, L-serine] |  |  | 3.6 ± 0.87 | 13 ± 1.0 | 3.6 | 0.45 ± 0.05 |  |  |  |  |  | 
6 | N[C@@H](CCO)C(=O)O [L-Hse, L-homoserine] |  |  | 82 ± 14 | 4.5 ± 0.28 | 0.055 | 3.6 ± 0.2 | converted to corresponding LCBs |  |  |  |  | 

Source: article PMC10196870, “Structural insights into the substrate recognition of serine palmitoyltransferase from Sphingobacterium multivorum” (The Journal of Biological Chemistry, 2023)
